Results reported in article PMC6155021, “Ancient and modern anticonvulsants act synergistically in a KCNQ potassium channel binding pocket” (Nature Communications, 2018).

Columns and labels:
[1] = cited from earlier work
KCNQ2/3 channels [2] = target: T1, KCNQ2/3 channels (Homo sapiens, UniProt O43525+O43526); test: Two-electrode voltage-clamp of KCNQ2/3 channels expressed in Xenopus laevis oocytes; type: cell-based; details: for Non-normalized tail current V0.5 / Normalized tail current V0.5 / Slope: KCNQ2/3; for effect on voltage dependence of KCNQ2/3 activation (initial screen): tail currents at −30 mV
From the text: (§1) cRNA transcripts encoding human KCNA1, KCNQ1, KCNQ2, KCNQ3, KCNQ4, or KCNQ5 were generated by in vitro transcription using the T7 polymerase message machine kit (Thermo Fisher Scientific), after vector linearization, from cDNA sub-cloned into plasmids incorporating X. laevis β-globin 5′ and 3′ UTRs flanking the coding region to enhance translation and cRNA stability. cRNA was quantified by spectrophotometry. Mutant cDNAs were generated by site-directed mutagenesis using a QuikChange kit according to manufacturer’s protocol (Stratagene, San Diego, CA) and corresponding cRNAs prepared as above. Defolliculated stage V and VI X. laevis oocytes (Ecocyte Bioscience, Austin, TX) were injected with Kv channel α subunit cRNAs (10 ng total per oocyte). Oocytes were incubated at 16 °C in Barth’s saline solution (Ecocyte) containing penicillin and streptomycin, with daily washing, for 3–5 days prior to two-electrode voltage-clamp (TEVC) recording.
(§2) Oocytes were placed in a small-volume oocyte bath (Warner) and viewed with a dissection microscope. Chemicals were sourced from Sigma. Bath solution was (in mM): 96 NaCl, 4 KCl, 1 MgCl2, 1 CaCl2, 10 HEPES (pH 7.6). […] MTX (DMSO), sorbic acid (ethanol), and glutaconic acid (molecular grade H2O) were stored at −20 °C as 1 M stocks. Oleamide was stored as a 1 mM stock in ethanol at 4 °C. Palmitic acid was conjugated with bovine serum albumin as a 1 mM stock and stored at −20 °C. All compounds were diluted to working concentrations each experimental day. All compounds were introduced to the recording bath via gravity perfusion at a constant flow of 1 ml/min for 3 min prior to recording. Pipettes were of 1–2 MΩ resistance when filled with 3 M KCl. Currents were recorded in response to pulses between −80 and +40 mV at 20 mV intervals, or a single pulse to +40 mV, from a holding potential of −80 mV, to yield current–voltage relationships, current magnitude, and for quantifying activation rate. TEVC data analysis was performed with Clampfit10.2 (Molecular Devices) and Graphpad Prism software (GraphPad, San Diego, CA, USA); values are stated as mean ± SEM. Normalized tail currents were plotted versus prepulse voltage and fitted with a single Boltzmann function:1 g=A1-A2/1+expV12-Vy+A2, where g is the normalized tail conductance, A1 is the initial value at −∞, A2 is the final value at +∞, V1/2 is the half-maximal voltage of activation, and Vs the slope factor. Activation and deactivation kinetics were fitted with single-exponential functions.

KCNA1 = KCNA1 (Homo sapiens, UniProt Q09470); test: Two-electrode voltage-clamp of KCNA1 in Xenopus oocytes; type: cell-based
KCNA1, sequence (Q09470 whole entry): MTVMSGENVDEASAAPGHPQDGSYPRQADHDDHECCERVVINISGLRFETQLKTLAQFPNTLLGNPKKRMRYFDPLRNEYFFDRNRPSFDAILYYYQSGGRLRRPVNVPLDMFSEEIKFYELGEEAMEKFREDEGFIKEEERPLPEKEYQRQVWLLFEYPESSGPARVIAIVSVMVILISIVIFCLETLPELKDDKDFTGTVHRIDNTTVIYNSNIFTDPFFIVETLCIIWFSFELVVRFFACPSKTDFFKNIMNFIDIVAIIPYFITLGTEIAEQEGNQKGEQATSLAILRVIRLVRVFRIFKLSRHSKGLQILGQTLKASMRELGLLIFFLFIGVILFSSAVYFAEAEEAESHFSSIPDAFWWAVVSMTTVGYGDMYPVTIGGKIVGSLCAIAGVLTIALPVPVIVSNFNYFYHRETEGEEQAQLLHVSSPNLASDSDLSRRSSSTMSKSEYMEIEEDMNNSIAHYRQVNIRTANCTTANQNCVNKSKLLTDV
From the text: as §1
as §2, with “TEVC data analysis was performed with Clampfit10.2 (Molecular Devices) and Graphpad Prism software (GraphPad, San Diego, CA, USA); values are stated as mean ± SEM. Normalized tail currents were plotted versus prepulse voltage and fitted with a single Boltzmann function:1 g=A1-A2/1+expV12-Vy+A2, where g is the normalized tail conductance, A1 is the initial value at −∞, A2 is the final value at +∞, V1/2 is the half-maximal voltage of activation, and Vs the slope factor. Activation and deactivation kinetics were fitted with single-exponential functions.” left out

[3] = test system: pentylene tetrazole-induced seizures; test: PTZ chemoconvulsant assay; type: in vivo, mouse; details: mice
From the text: We compared anticonvulsant activities of test compounds in male C57BL/6 mice (Charles River) aged 2–3 months. Mice were housed and used according to the recommendations in the Guide for the Care and Use of Laboratory Animals of the National Institutes of Health (NIH Publication, 8th edition, 2011). The study protocol was approved by the Institutional Animal Care and Use Committee of University of California, Irvine, which confirmed that all relevant ethical regulations were adhered to. Chemicals were sourced from Sigma (St. Louis, MO, USA) . A pentylene tetrazole (PTZ) chemoconvulsant assay was used[54]. […] Following the PTZ injection, mice were caged individually and an observer (GWA) blinded to the drug used recorded, over 20 min, clonic and tonic seizure incidence, and seizure-related mortality.
All values are expressed as mean ± SEM. Chi-squared analysis was used to compare seizure-related mortality in mice. One-way ANOVA was applied for all other tests; if multiple comparisons were performed, a post-hoc Tukey’s HSD test was performed following ANOVA. All p-values were two-sided. Statistical significance was defined as p < 0.05.

[4] = target: KCNQ2-W236L/KCNQ3-W265L channels (Homo sapiens, UniProt O43525+O43526, W236L/W265L); test: Two-electrode voltage-clamp of W236L-Q2/W265L-Q3 mutant channels in Xenopus oocytes; type: cell-based; details: 100 µM
From the text: as §1, §2

KCNQ2/3 channels [5] = target: T1, KCNQ2/3 channels; details: previously found, cited from earlier work

Structure (SMILES) | Non-normalized tail current V0.5 (KCNQ2/3 channels [2]; 100 µM) [mV] | Normalized tail current V0.5 (KCNQ2/3 channels [2]; 100 µM) [mV] | Slope (KCNQ2/3 channels [2]; 100 µM) [mV] | Non-normalized tail current V0.5 (KCNQ2/3 channels [2]; 0.1 µM) [mV] | Normalized tail current V0.5 (KCNQ2/3 channels [2]; 0.1 µM) [mV] | Slope (KCNQ2/3 channels [2]; 0.1 µM) [mV] | Non-normalized tail current V0.5 (KCNQ2/3 channels [2]; 1 µM) [mV] | Normalized tail current V0.5 (KCNQ2/3 channels [2]; 1 µM) [mV] | Slope (KCNQ2/3 channels [2]; 1 µM) [mV] | Non-normalized tail current V0.5 (KCNQ2/3 channels [2]; 10 µM) [mV] | Normalized tail current V0.5 (KCNQ2/3 channels [2]; 10 µM) [mV] | Slope (KCNQ2/3 channels [2]; 10 µM) [mV] | other results
CC(C)CC(N)=O [Isovaleramide, isovaleramide] |  |  |  |  |  |  |  |  |  |  |  |  | passage through biological membranes [1]: readily passes though biological membranes; mean Tmax ([1]; humans): 30 to 45 min; mean elimination half-life ([1]; humans): 2.5 h; well tolerated dose ([1]; humans): at least 2400 mg per day
C=CCCCCC [1-Heptene] | -41.9 ± 4.9 | -41.8 ± 0.9 | 5.8 ± 1.5 |  |  |  |  |  |  |  |  |  | 
CCCCCCCCCCCCCCCC(=O)O [Palmitic Acid, palmitic acid] |  |  |  | -43.6 ± 5.0 | -44.3 ± 1.7 | 7.9 ± 1.7 | -45.6 ± 5.5 | -46.6 ± 1.7 | 7.4 ± 1.7 | -43.1 ± 4.9 | -44.9 ± 0.9 | 6.8 ± 0.9 | effect on voltage dependence of KCNQ2/3 activation (initial screen) (KCNQ2/3 channels [2]; 30 µM): negative-shifted; Non-normalized tail current V0.5 (KCNQ2/3 channels [2]; 3 µM): -45.1 ± 5.4 mV; Normalized tail current V0.5 (KCNQ2/3 channels [2]; 3 µM): -46.5 ± 1.1 mV; Slope (KCNQ2/3 channels [2]; 3 µM): 7.1 ± 1.1 mV; Non-normalized tail current V0.5 (KCNQ2/3 channels [2]; 30 µM): -43.5 ± 4.9 mV; Normalized tail current V0.5 (KCNQ2/3 channels [2]; 30 µM): -44.3 ± 1.4 mV; Slope (KCNQ2/3 channels [2]; 30 µM): 7.0 ± 1.1 mV
CC(C)CC(=O)O [IVA, isovaleric acid] |  |  |  |  |  |  |  |  |  |  |  |  | Slope (KCNA1; KCNA1 (table title), 500 µM): 6.9 ± 1.1 mV; effect on KCNA1 currents (KCNA1; MTX concentration not given, IVA 500 µM): did not alter currents; clonic seizure incidence ([3]; 10 mg/kg i.p. alone): neither compound reduced clonic seizures alone; clonic seizure incidence ([3]; 20 mg/kg i.p., 30 min before 80 mg kg−1 PTZ): no effect; suppression of PTZ-induced tonic seizures ([3]; individually): ineffective
Oc1ccccc1S [2-Mercaptophenol, 2-mercaptophenol] | -34.5 ± 4.6 | -29.5 ± 2.5 | 5.0 ± 1.2 | -40.9 ± 3.2 | -43.4 ± 3.6 | 5.4 ± 1.2 | -43.2 ± 2.6 | -43.6 ± 0.8 | 6.4 ± 0.9 | -43.2 ± 2.8 | -43.7 ± 1.1 | 7.4 ± 1.1 | effect on voltage dependence of KCNQ2/3 activation (initial screen) (KCNQ2/3 channels [2]; 100 µM): positive-shifted; effect of 2-mercaptophenol on ability of MTX to activate KCNQ2/3 (KCNQ2/3 channels [2]; 2-mercaptophenol 100 µM with MTX 30 µM): did not alter; Non-normalized tail current V0.5 (KCNQ2/3 channels [2]; 0.01 µM): -37.2 ± 3.7 mV; Normalized tail current V0.5 (KCNQ2/3 channels [2]; 0.01 µM): -37.7 ± 1.5 mV; Slope (KCNQ2/3 channels [2]; 0.01 µM): 7.4 ± 1.6 mV; Non-normalized tail current V0.5 (KCNQ2/3 channels [2]; 300 µM): -22.5 ± 7.2 mV; Normalized tail current V0.5 (KCNQ2/3 channels [2]; 300 µM): -19.8 ± 1.4 mV; Slope (KCNQ2/3 channels [2]; 300 µM): 8.3 ± 0.9 mV; concentration at which KCNQ2/3 inhibition begins (KCNQ2/3 channels [2]; activating at lower concentrations): ~ 100 µM; sensitivity of KCNQ2-W236L/KCNQ3-W265L channels [4]: insensitive; Non-normalized tail current V0.5 ([4]; W236L-Q2/W265L-Q3): -53.8 ± 1.7 mV; Normalized tail current V0.5 ([4]; W236L-Q2/W265L-Q3): -51.0 ± 4.2 mV
NCC(O)CC(=O)O (stereo not drawn) [GABOB, γ-amino-β-hydroxybutyric acid, reference compound] |  |  |  |  |  |  |  |  |  |  |  |  | EC50 (KCNQ2/3 channels [5]; high affinity partial agonist): 120 nM; effect of GABOB on IVA effects on KCNQ2/3 (KCNQ2/3 channels [2]; GABOB 100 µM with IVA 500 µM): highly effective at competing out effects of IVA; effect of GABOB on MTX effects on KCNQ2/3 (KCNQ2/3 channels [2]; GABOB 100 µM with MTX 30 µM): only partially diminishes
C/C=C/C=C/C(=O)O [Sorbic Acid, sorbic acid] | -39.9 ± 3.0 | -39.9 ± 0.9 | 4.2 ± 0.9 |  |  |  |  |  |  |  |  |  | 
CCCCC(=O)O [valeric acid] |  |  |  |  |  |  |  |  |  |  |  |  | ability to activate KCNQ2/3 channels (KCNQ2/3 channels [5]): inactive
CCC1=C(O)C(=O)CC1 [3-ethyl-2-hydroxy-2-cyclopenten-1-one] | -40.1 ± 1.9 | -41.0 ± 0.9 | 5.1 ± 0.9 |  |  |  |  |  |  |  |  |  | 
CCCCCCCC/C=C\CCCCCCCC(N)=O [Oleamide, oleamide] | -41.9 ± 3.5 | -41.5 ± 0.8 | 6.6 ± 0.8 | -41.9 ± 4.8 | -41.8 ± 0.6 | 6.5 ± 0.9 | -41.6 ± 4.3 | -41.5 ± 0.8 | 6.7 ± 1.1 | -39.4 ± 4.8 | -39.2 ± 0.8 | 7.0 ± 0.8 | Non-normalized tail current V0.5 (KCNQ2/3 channels [2]; 500 µM): -37.6 ± 2.1 mV; Normalized tail current V0.5 (KCNQ2/3 channels [2]; 500 µM): -37.9 ± 0.8 mV; Slope (KCNQ2/3 channels [2]; 500 µM): 6.7 ± 0.6 mV
O=C(O)/C=C/CC(=O)O [Glutaconic Acid, glutaconic acid] | -40.8 ± 3.8 | -40.7 ± 1.2 | 5.4 ± 1.7 | -40.4 ± 1.5 | -41.2 ± 1.4 | 4.4 ± 3.7 | -41.5 ± 1.3 | -42.7 ± 1.7 | 4.8 ± 2.4 | -42.1 ± 3.8 | -42.9 ± 2.2 | 5.4 ± 2.3 | effect on voltage dependence of KCNQ2/3 activation (initial screen) (KCNQ2/3 channels [2]; 100 µM): negative-shifted; Non-normalized tail current V0.5 (KCNQ2/3 channels [2]; 500 µM): -38.5 ± 5.4 mV; Normalized tail current V0.5 (KCNQ2/3 channels [2]; 500 µM): -37.7 ± 0.9 mV; Slope (KCNQ2/3 channels [2]; 500 µM): 6.8 ± 0.9 mV
O=C1c2ccccc2C(Cc2ccncc2)(Cc2ccncc2)c2ccccc21 [XE991, reference compound] |  |  |  |  |  |  |  |  |  |  |  |  | effect on MTX-activated KCNQ2/3 current (KCNQ2/3 channels [2]; wash-in of MTX followed by XE991, −60 mV): rapidly inhibited
